In patent publication US11014908B2, “Chemical compounds” (Pfizer Inc., priority 2018, dated 2021) one finds Kd and IC50 data, which are given here for 13 compounds.

The target in assay [1] is T1, purified sickle cell hemoglobin (HbS) (Homo sapiens, UniProt P68871+P69905, E7V).
T1 construct: HbS was obtained from the blood of homozygous S/S patients; from tissue; host or cells: red blood cells of homozygous S/S patients
The assay can be described thus: Binding affinity to purified HbS by Surface Plasmon Resonance (SPR). Conditions: crosslinked biotinylated HbS, 1:1 binding model. Here is the method: Binding Affinity, Kd (uM)
The binding affinity for compounds to purified sickle cell hemoglobin (HbS) was determined using Surface Plasmon Resonance (SPR). Patient Sickle Cell blood was obtained from Boston Children's Hospital in accordance with Institutional Review Board protocols. HbS was obtained from the blood of homozygous S/S patients, and purified using the method described in: Antonini and Brunori, Hemoglobin and Myoglobin in their Reactions with Ligands. Amsterdam, London, North-Holland Publishing Company, 1971. Whole blood was separated into red blood cell and plasma components by centrifugation, after which the plasma was decanted and discarded. Packed red blood cells were washed with normal saline (0.9% NaCl) and then lysed by 2:1 dilution with cold deionized water. The hemolysate was centrifuged to remove cellular debris, and further purified with the addition of Drabkin's Buffer (2.8 M potassium phosphate), and centrifugation with Celite®. Organic phosphates (2,3-BPG) were removed via gel filtration with Sephadex® G-25. HbS and wild-type hemoglobin, hemoglobin A (HbA), were separated by […], using diethylaminoethyl (DEAE)-Sepharose® fast flow, and eluted using a pH gradient from pH 8.5-pH 7.5. Purity of the resulting HbS and HbA was determined by native gel electrophoresis and HbS fractions used further.
To stabilize the tetrameric structure of hemoglobin, HbS was crosslinked between the beta subunits (Lys82-Lys82) using bis(3,5-dibromosalicyl) fumarate, as described in: Shibayama N. et al, J Am Chem Soc 2014, 136, 13, 5097-5105 and Shibayama N. et al, Biochemistry 1991, 39, 33, 8158-8165). Crosslinked HbS was subsequently biotynylated and captured on a custom made Streptavidin sensor to achieve protein density of 4000 to 5000 resonance units (RUs) on the surface. Compound binding to HbS using SPR was tested on Sierra Sensors MASS-1 instrument. The running buffer contained 100 mM Potassium Phosphate, pH 7.5, 0.005% Tween-20, 1 mM ethylenediaminetetraacetic acid (EDTA), 0.1 mg/mL bovine serum albumin with 1% DMSO. Compound samples were injected at a flow rate of 30 μL/min for 2 minutes association and at least 5 minutes of dissociation time. A 2- or 3-fold dilution series containing at least 4 concentrations were tested for each compound. The dose range was selected based on the activity of the compounds in biochemical assays, when available. Multiple blank injections of running buffer were run before and after each compound series to allow blank subtraction for compound data in the analysis software. Positive controls were run in each experiment to monitor and maintain the activity of HbS on the surface. A DMSO curve was run at the beginning of each data set to apply an excluded volume correction to the data during analysis. The data were processed and analyzed using Sierra Sensors and Scrubber 2.0 software. The binding affinities (dissociation constant Kd) were calculated by fitting the sensorgrams to a 1:1 binding model.

The target in a further assay is T2, HbS (Homo sapiens, UniProt P68871+P69905, E7V).
T2 construct: HbS was obtained from the blood of homozygous S/S patients; from tissue; host or cells: red blood cells of homozygous S/S patients
The assay can be described thus: 'R'-'T' assay (conversion of oxy HbS to deoxy HbS under deoxygenating conditions). It counts as biochemical. As to conditions: 50% inhibition of HbS 'R'-'T' conversion; 3 uM HbS, <1% O2. Here is the method: Conversion from oxy (R, relaxed state) to deoxy (T, tense state) HbS in the presence of compound was performed to determine the ability of compounds to stabilize the oxy (R) state under deoxygenating conditions. The assay run was similar to the ‘Oxygen dissociation assay’ described in Oksenberg et al, Br J Haematology, 2016, 175, 141-153.
Assay ready compound plates were prepared by first preparing a master serial dilution plate from a 30 mM initial compound stock in 100% DMSO. From this master serial dilution plate, 167 nL of the desired compound concentration was delivered to the assay ready plates using acoustical dispensing. Plates were frozen at −20° C. until needed. Purified HbS-O2 (i.e. oxy HbS) was diluted to 3 uM in 100 mM potassium phosphate buffer, pH=7.4. 50 uL of 3 uM stock solution was added to each well of the assay ready plate and mechanically mixed eight times. Following mixing the plates were covered and incubated at room temperature for one hour with moderate shaking. Following incubation, the plates were placed in a deoxygenated environment (<1% O2) for two hours, and the conversion to deoxy HbS monitored as a function of time. Oxygenated and deoxygenated forms of hemoglobin were detected using the absorbance of the Soret peaks at 415 and 430 nm respectively, and absorbance measurements (optical density, OD) were taken at 0, 90 and 120 minutes. Background absorbance for correction was collected at 700 nm.
Data were analyzed by first subtracting baseline absorbance at 700 nm from 415 nm and 430 nm data at each timepoint, and then taking the ratio of 415/430 nm data (Ratio=[(OD415−OD700)/(OD430−OD700)]. The effect at each timepoint was calculated using the ratios from the previous calculation at time 0 and each time point of interest (Effect^time x=Ratio^time x/Ratio^time 0). Percent effect was calculated by comparing the effects of compound versus HbS only with the effects observed by the positive control compound tucaresol (percent effect=[(effect^time x compound−effect^time x HbS)/(effect^time x tucaresol−effect^time x HbS)]×100). Data were reported as the percent effect for a single point. Calculations to determine the concentration of compound for 50% inhibition (IC50 (uM)) of the HbS ‘R’-‘T’ conversion were based on the percent effect at varying compound concentration.

In turn, `C[C@H](Oc1cc2cc(C(N)=O)cc(F)c2nc1N)c1ncc(F)cc1-n1cccn1` [Example 35, 2-amino-8-fluoro-3-{(1S)-1-[5-fluoro-3-(1H-pyrazol-1-yl)pyridin-2-yl]ethoxy}quinoline-6-carboxamide] had a Kd in assay [1] of 0.068 µM. This compound came in with an IC50 on HbS of 3.93 µM.

In assay [1], `C[C@H](Oc1cc2cc(F)ccc2nc1N)c1nc2[nH]ncc2cc1-n1cccn1` [Example 68, 6-fluoro-3-{(1S)-1-[5-(1H-pyrazol-1-yl)-1H-pyrazolo[3,4-b]pyridin-6-yl]ethoxy}quinolin-2-amine] returned a Kd of 0.015 µM. This compound gave an IC50 at HbS of 4.61 µM.

In turn, `C[C@H](Oc1cc2cc(F)cc(F)c2nc1N)c1cc(C(=O)O)c(F)cc1-n1cccn1` [Example 23, 5-{(1S)-1-[(2-amino-6,8-difluoroquinolin-3-yl)oxy]ethyl}-2-fluoro-4-(1H-pyrazol-1-yl)benzoic Acid] came in with a Kd in assay [1] of 0.043 µM. On HbS, this compound yielded an IC50 of 4.01 µM.

In assay [1], `C[C@H](Oc1cc2cc(F)ccc2nc1N)c1cc2[nH]ncc2cc1-n1cccn1` (single isomer, unassigned) [Example 59] gave a Kd of 0.047 µM. Moreover, half-maximal inhibition against HbS (IC50) required 4.5 µM.

With `C[C@H](Oc1cc2cc(C(N)=O)ccc2nc1N)c1nc(OCCO)ccc1-n1cccn1` [Example 42, 2-amino-3-{(1S)-1-[6-(2-hydroxyethoxy)-3-(1H-pyrazol-1-yl)pyridin-2-yl]ethoxy}quinoline-6-carboxamide], in assay [1], the Kd is 0.142 µM. Half-maximal inhibition against HbS (IC50) required 5.26 µM.

Compound `C[C@H](Oc1cc2cc(C(C)(C)O)ccc2nc1N)c1nc(O)ccc1-n1cccn1` [Example 50, 6-[(1S)-1-{[2-amino-6-(2-hydroxypropan-2-yl)quinolin-3-yl]oxy}ethyl]-5-(1H-pyrazol-1-yl)pyridin-2-ol] gave a Kd in assay [1] of 1.33 µM. On HbS, this compound yielded an IC50 of 100 µM.

In assay [1], `C[C@H](Oc1cc2cc(C(N)=O)ccc2nc1N)c1cc2c(cnn2CCO)cc1-n1cccn1` (single isomer, unassigned) [Example 74] registered a Kd of 0.059 µM. At HbS, the IC50 came out at 4.28 µM.

Consider `C[C@H](Oc1cc2cc(F)ccc2nc1N)c1cc(-c2n[nH]c(=O)o2)ccc1-n1cccn1` [Example 5, 5-[3-{(1S)-1-[(2-amino-6-fluoroquinolin-3-yl)oxy]ethyl}-4-(1H-pyrazol-1-yl)phenyl]-1,3,4-oxadiazol-2(3H)-one], for which, in assay [1], binding was put at a Kd of 0.014 µM. This compound showed an IC50 against HbS of 4.38 µM.

Turning to `C[C@H](Oc1cc2cc(F)ccc2nc1N)c1ncc(F)cc1-n1cccn1` [Example 33, 6-fluoro-3-{(1S)-1-[5-fluoro-3-(1H-pyrazol-1-yl)pyridin-2-yl]ethoxy}quinolin-2-amine], binding in assay [1] was characterised by a dissociation constant (Kd) of 0.034 µM. Further, on HbS, the IC50 was determined as 4.3 µM.

The compound `Cc1cc2nc(N)c(O[C@@H](C)c3cc(C(=O)O)ccc3-n3cccn3)cc2cn1` [Example 22, 3-{(1S)-1-[(2-amino-7-methyl-1,6-naphthyridin-3-yl)oxy]ethyl}-4-(1H-pyrazol-1-yl)benzoic Acid] displayed a Kd in assay [1] of 0.172 µM. Also, the IC50 against HbS turned out to be 5.4 µM.

In assay [1], `CC(Oc1cc2cc(C(N)=O)c(F)cc2nc1N)c1cc2[nH]ncc2cc1-n1cccn1` (stereo in doubt) [Example 65, 2-amino-7-fluoro-3-{(1R)-1-[5-(1H-pyrazol-1-yl)-1H-indazol-6-yl]ethoxy}quinoline-6-carboxamide] returned a Kd of 0.015 µM. Also, on HbS, the IC50 was 6.17 µM.

Compound `C[C@H](Oc1cc2cc(F)ccc2nc1N)c1cc(C(=O)O)c(F)cc1-n1cccn1` [Example 9, 5-{(1S)-1-[(2-amino-6-fluoroquinolin-3-yl)oxy]ethyl}-2-fluoro-4-(1H-pyrazol-1-yl)benzoic Acid] yielded a Kd in assay [1] of 0.087 µM. For the same compound, the IC50 against HbS is 4.72 µM.

In turn, `C[C@H](Oc1cc2ncccc2nc1N)c1nc(O)ccc1-n1cccn1` [Example 47, 6-{(1S)-1-[(2-amino-1,5-naphthyridin-3-yl)oxy]ethyl}-5-(1H-pyrazol-1-yl)pyridin-2-ol] registered a Kd in assay [1] of 0.384 µM. The same compound registered an IC50 on HbS of 6.32 µM.
